Data set [1] has as its system DA (TH^+) neurons. In words: MPP^+ intoxication model, DA cell survival in midbrain cultures. Type of data set: cell-based, Wistar rat. Here is the method: (§1) Animals were treated in accordance with the Guide for the Care and Use of Laboratory Animals (National Research Council, 1996), European Directive 86/609, and the guidelines of the local institutional animal care and use committee. Cultures were prepared from the ventral mesencephalon of gestational age 15.5 Wistar rat embryos (Janvier Breeding Center, Le Genest St Isle, France). Dissociated cells in suspension obtained by mechanical trituration of midbrain tissue pieces were seeded at a density of 1.2-1.5 10^5 cells/cm^2 onto tissue culture supports precoated with 1 mg/mL polyethylenimine diluted in borate buffer pH 8.3 as described (Michel et al., 1997. J Neurochem. 69(4):1499-507). […] They were fed daily by replacing 70% of the medium. Routinely, mesencephalic cultures were established on Nunc 24-well culture plates (Thermofischer Scientific, Rochester, N.Y.). Note that these cultures contain tyrosine hydroxylase (TH)^+ neurons that were exclusively dopaminergic (Traver et al., 2006. Mol Pharmacol. 70(1):30-40). TH^+ neurons represented approximately 1-2% of the total number of neuronal cells present in these cultures. The evaluation of the survival of DA neurons was performed by counting cells immunopositive for TH as described (Toulorge et al., 2011. Faseb J. 25(8):2563-73).
Treatments with MPP^+ were performed in cultures where the spontaneous death process was prevented by long-term exposure to depolarizing concentrations of K^+ (30 mM), in the presence of the glutamate receptor antagonist MK801 (5 μM) to prevent unwanted excitotoxic insults as described previously (Douhou et al., 2001. J Neurochem. 78(1):163-74). Treatments with MPP^+ and potential neuroprotective molecules were carried out between 5 and 7 DIV. The number of microglial cells was evaluated in this same model since MPP^+ is known to induce microglial proliferation (Henze et al., 2005. J Neurochem. 95(4):1069-77).
The cultures were fixed for 12 min using 4% formaldehyde in Dulbecco's phosphate-buffered saline (PBS), then washed twice with PBS before an incubation step at 4° C. for 24 h with the following antibodies. A monoclonal anti-TH antibody diluted 1/5000 (ImmunoStar, Inc., Hudson, Wis.) or a polyclonal anti-TH antibody diluted 1/1000 (US Biologicals, Salem, Mass.) was used to assess the survival of DA neurons. A monoclonal anti-MAP2 antibody diluted at 1/250 (clone AP20, Sigma-Aldrich) was used to assess the survival of cortical neurons. Microglial cells were characterized using a mouse anti-Ibal antibody (1/50; clone MRC OX-42; Pharmingen, BD Biosciences, Le Pont-de-Claix, France). All antibodies were diluted in PBS containing 0.2% Triton X-100, except the mouse anti-Ibal which was diluted in PBS only. Detection of the primary antibodies was performed with an Alexa Fluor-488 conjugate of an anti-mouse IgG antibody or with an Alexa Fluor-555 conjugate of an anti-rabbit antibody (1:500).

The test system of data set [2] is DA (TH^+) neurons. In words: GDNF withdrawal model in midbrain cultures. The settings on record: GDNF 20 ng/mL for 10 DIV, deprived 11-15 DIV; NAD^+ 3 mM, antibodies 1 μg/mL.
Source text: They were fed daily by replacing 70% of the medium. Routinely, mesencephalic cultures were established on Nunc 24-well culture plates (Thermofischer Scientific, Rochester, N.Y.). […] TH^+ neurons represented approximately 1-2% of the total number of neuronal cells present in these cultures.
To evaluate the efficacy of our compounds in a more mature population of DA neurons, we also used a variation of the previous model system. More precisely, spontaneous DA cell death was prevented up to 10 DIV by a chronic treatment with GDNF (20 ng/mL) to favor the maturation of healthy DA neurons. Then, DA cell death was triggered by total withdrawal of GDNF for the next 5 days.
The cultures were fixed for 12 min using 4% formaldehyde in Dulbecco's phosphate-buffered saline (PBS), then washed twice with PBS before an incubation step at 4° C. for 24 h with the following antibodies. A monoclonal anti-TH antibody diluted 1/5000 (ImmunoStar, Inc., Hudson, Wis.) or a polyclonal anti-TH antibody diluted 1/1000 (US Biologicals, Salem, Mass.) was used to assess the survival of DA neurons. […] All antibodies were diluted in PBS containing 0.2% Triton X-100, except the mouse anti-Ibal which was diluted in PBS only.
The test system of data set [3] is dopaminergic neurons. Description: Prevention of dopaminergic neurons cell death (summary statement). Type of data set: cell-based.
For data set [4], the system named is cortical neurons. In words: Oxidative stress model (H2O2) in cortical cultures. Type of data set: cell-based, Wistar rat. The settings on record: H2O2 75 μM between 12 and 14 DIV; NAD^+ 3 mM, antibodies 1 μg/mL. The procedure: (§2) Animals were treated in accordance with the Guide for the Care and Use of Laboratory Animals (National Research Council, 1996), European Directive 86/609, and the guidelines of the local institutional animal care and use committee. Cultures were prepared from the cortex of gestational age 15.5 Wistar rat embryos (Janvier Breeding Center, Le Genest St Isle, France). Dissociated cells in suspension obtained by mechanical trituration of cortical tissue pieces were seeded onto tissue culture supports precoated with 1 mg/mL polyethylenimine diluted in borate buffer pH 8.3 according to the protocol previously described for mesencephalic cultures. […] They were fed daily by replacing 70% of the medium. Routinely, cortical cultures were established on Nunc 24-well culture plates (Thermofischer Scientific, Rochester, N.Y.).
H2O2 (75 μM) was added to cortical cultures between 12 and 14 DIV in the presence or the absence of potential neuroprotective molecules. The cultures were then fixed in formaldehyde and immunostained using anti-MAP-2 antibody. The area occupied by MAP-2′ neurons was assessed using ImageJ.
(§3) The cultures were fixed for 12 min using 4% formaldehyde in Dulbecco's phosphate-buffered saline (PBS), then washed twice with PBS before an incubation step at 4° C. for 24 h with the following antibodies. […]

Data set [5] deals with cortical neurons. Description: Excitotoxicity model (glutamate) in cortical cultures. It is filed as cell-based, Wistar rat. The settings on record: glutamate 75 μM between 12 and 14 DIV; NAD^+ 3 mM, antibodies 1 μg/mL. The procedure:
as §2
Glutamate (75 μM) was added to cortical cultures between 12 and 14 DIV in the presence or the absence of potential neuroprotective treatments. The cultures were then fixed in formaldehyde and immunostained using anti-MAP-2 antibody. The area occupied by MAP-2^+ neurons was assessed using ImageJ.
as §3

In data set [6] the test system is cortical neurons. In words: Measurement of glucose uptake in cortical neurons (2-NBDG). It is filed as cell-based, Wistar rat. Particulars: acute treatment 30 min, 7 DIV; HB7 1 μg/mL, NAD^+ 3 mM, insulin 100 nM.
Procedure: In brief, cultures grown for 7 days were incubated with 2-NBDG (300 μM) for 30 min at 37° C. in the presence of test compounds in glucose-free N5 medium, washed twice to remove excess indicator, and then left to recover for 30 min before assessment. The fluorescent signal (excitation, 465 nm; emission, 540 nm) was acquired using an Arrayscan (ThermoFischer Scientific) and quantified using ImageJ. The average pixel intensity over the surface of each cell body was determined under the different experimental conditions. Background fluorescence was subtracted from raw data, and the results were expressed as a percentage of mean fluorescence intensity per cell under control conditions. 100 cells were analysed under each test condition.
Data set [7] relates to midbrain DA (TH^+) neurons. In words: Spontaneous and progressive dopaminergic (DA) cell death in midbrain cultures. Type of data set: cell-based, Wistar rat. Particulars: NAD^+ 3 mM, antibodies 1 μg/mL. The procedure: as §1
We used a model system in which DA cell loss was spontaneous. […]

The subject of data set [8] is interleukin-10 (IL-10). The settings on record: in vivo; cited from earlier work.
The conditions of data set [9]: in humans; cited from earlier work.

Consider `NC(=O)c1ccc[n+]([C@@H]2O[C@H](COP(=O)(O)OP(=O)([O-])OC[C@H]3O[C@@H](n4cnc5c(N)ncnc54)[C@H](O)[C@@H]3O)[C@@H](O)[C@@H]2F)c1` [ARA-F-NAD, ara-2′-deoxy-2′-fluoro-nicotinamide adenine dinucleotide], for which the “MPP^+-induced DA cell loss” value in data set [1] (ARA-F-NAD 200 μM during the intoxication period, MPP^+ 3 μM) is recorded as “almost totally prevented”. In addition, the “neuroprotective effect in the presence of Ned-19” value in data set [1] (ARA-F-NAD 200 μM, Ned-19 2 μM) was “abolished”.

In the case of `NC(=O)c1ccc[n+]([C@@H]2O[C@H](COP(=O)([O-])OP(=O)(O)OC[C@H]3O[C@@H](n4cnc5c(N)ncnc54)[C@H](O)[C@@H]3O)[C@@H](O)[C@H]2O)c1` [NAD^+, nicotinamide adenine dinucleotide], the “TH^+ neurons saved from death after GDNF deprivation” value in [2] is reported as “saved from death”. Besides, the “concentration at which the neuroprotective effect was exerted” value in data set [3] is 3 mM. In data set [1] (Ex-527 100 μM, HB7 1 μg/mL, NAD^+ 3 mM, MPP^+ model), the “neuroprotective effect in the presence of Ex-527” value is “only antagonized”. The “MPP^+-induced DA cell loss” value in [1] (MPP^+ 3 μM between 5 and 7 DIV, NAD^+ 3 mM, antibodies 1 μg/mL) is on record as “either partially or almost totally prevented”. The “neuroprotective effect in the presence of dantrolene” value in [1] (dantrolene 30 μM (FIG. 9), HB7 1 μg/mL, NAD^+ 3 mM, cADPR 200 μM, MPP^+ model) is given as “only antagonized”. For the same molecule, the “protection from oxidative stress” value in data set [4] was “protected from oxidative stress”. In addition, in data set [5], the protection from excitotoxicity result was “protected from excitotoxicity”. The glucose uptake entry in [6] is given as “only modestly increased glucose uptake”. In addition, the “number of midbrain DA (TH^+) neurons” value in data set [7] (10 DIV cultures chronically exposed) is recorded as “increased the number of midbrain DA (TH^+) neurons”. For the same molecule, the “neuroprotective effect in the presence of Ned-19” value in data set [7] (Ned-19 2 μM) is listed as “slightly but significantly”.

“daratumumab: anti-CD38 antibody approved for the treatment of multiple myeloma”: in data set [8], the “plasma levels of anti-inflammatory interleukin-10 (IL-10)” value is reported as “decrease”.

Take isatuximab: anti-CD38 antibody: in [8], the “plasma levels of anti-inflammatory interleukin-10 (IL-10)” value is recorded as “decrease”.

B1: ABBV-8E12: intravenously injected monoclonal antibody cited for its brain/plasma ratio in humans (antibody, chains of the INN, looked up, V domains shown)
VH: EVKVVESGGGLVQPGGSMKLSCVVSGFTFSNYWVNWVRQAPGKGLEWVAQIRLKSDNYATHYEESVKGRFTISRDDSKSSVYLQMNNLRAEDSGIYYCTNWEDYWGQGTTVTVSS
VL: DIVLTQSPDSLAVSLGERATISCRASQSVSTSRYSYIHWYQQKPGQPPKLLIKYASNLESGVPSRFSGSGSGTDFTLNIHPLEPEDFATYYCHHSWEIPLTFGQGTKLEIK
Turning to B1, the Brain/plasma ratio in [9] is reported as 0.385%.

The values are drawn from patent US20210087290A1, “COMPOUNDS WHICH SPECIFICALLY BIND TO CD38 FOR USE IN THE TREATMENT OF NEURODEGENERATIVE AND INFLAMMATORY DISEASES” (ENCEFA, priority 2017, published 2021).
